Source: ChEMBL document CHEMBL4145509, “Unravelling the binding mechanism of benproperine with human serum albumin: A docking, fluorometric, and thermodynamic approach” (Eur J Med Chem, 2018)

Tests used:
Albumin [1] = biological target: T1, Albumin (Homo sapiens, UniProt P02768); assay: Binding affinity to human serum albumin assessed as binding constant after 1 hr at 25 degC by fluorescence spectroscopic analysis; assay type: ADME; conditions: isolated protein
Albumin [2] = biological target: T1, Albumin; assay: Binding affinity to human serum albumin assessed as fluorescence lifetime decay 2 at HSA:compound ratio of 1:2 after 1 hr by fluorescence spectroscopic analysis (reference value: 0.584 +/- 0.047 nanoseconds); assay type: ADME; conditions: isolated protein
Albumin [3] = biological target: T1, Albumin; assay: Binding affinity to human serum albumin assessed as fluorescence lifetime decay 1 at HSA:compound ratio of 1:10 after 1 hr by fluorescence spectroscopic analysis (reference value: 3.917 +/- 0.039 nanoseconds); assay type: ADME; conditions: isolated protein
Albumin [4] = biological target: T1, Albumin; assay: Binding affinity to human serum albumin by isothermal titration microcalorimetry; assay type: ADME; conditions: isolated protein
Albumin [5] = biological target: T1, Albumin; assay: Induction of conformational changes in human serum albumin assessed as reduction in alpha-helical content at HSA:compound ratio of 1:10 by CD spectral analysis (reference value: 52.6%); set-up: scale not given: the % may be the effect or the level left
Albumin [6] = biological target: T1, Albumin; assay: Binding affinity to human serum albumin assessed as fluorescence lifetime decay 3 at HSA:compound ratio of 1:2 after 1 hr by fluorescence spectroscopic analysis (reference value: 6.876 +/- 0.177 nanoseconds); assay type: ADME; conditions: isolated protein
Albumin [7] = biological target: T1, Albumin; assay: Binding affinity to human serum albumin assessed as fluorescence lifetime decay 3 at HSA:compound ratio of 1:10 after 1 hr by fluorescence spectroscopic analysis (reference value: 6.876 +/- 0.177 nanoseconds); assay type: ADME; conditions: isolated protein
Albumin [8] = biological target: T1, Albumin; assay: Binding affinity to human serum albumin assessed as fluorescence lifetime decay 1 at HSA:compound ratio of 1:2 after 1 hr by fluorescence spectroscopic analysis (reference value: 3.917 +/- 0.039 nanoseconds); assay type: ADME; conditions: isolated protein
Albumin [9] = biological target: T1, Albumin; assay: Binding affinity to human serum albumin assessed as binding constant after 1 hr at 37 degC by fluorescence spectroscopic analysis; assay type: ADME; conditions: isolated protein
Albumin [10] = biological target: T1, Albumin; assay: Induction of conformational changes in human serum albumin assessed as reduction in alpha-helical content at HSA:compound ratio of 1:2 by CD spectral analysis (reference value: 52.6%); set-up: scale not given: the % may be the effect or the level left
Albumin [11] = biological target: T1, Albumin; assay: Binding affinity to human serum albumin assessed as fluorescence lifetime decay 2 at HSA:compound ratio of 1:10 after 1 hr by fluorescence spectroscopic analysis (reference value: 0.584 +/- 0.047 nanoseconds); assay type: ADME; conditions: isolated protein
Albumin [12] = biological target: T1, Albumin; assay: Binding affinity to human serum albumin assessed as Stern-Volmer quenching constant after 1 hr at 25 degC by fluorescence spectroscopic analysis; assay type: ADME; conditions: isolated protein
Albumin [13] = biological target: T1, Albumin; assay: Binding affinity to human serum albumin assessed as Stern-Volmer quenching constant after 1 hr at 37 degC by fluorescence spectroscopic analysis; assay type: ADME; conditions: isolated protein

T1 sequence (P02768 whole entry): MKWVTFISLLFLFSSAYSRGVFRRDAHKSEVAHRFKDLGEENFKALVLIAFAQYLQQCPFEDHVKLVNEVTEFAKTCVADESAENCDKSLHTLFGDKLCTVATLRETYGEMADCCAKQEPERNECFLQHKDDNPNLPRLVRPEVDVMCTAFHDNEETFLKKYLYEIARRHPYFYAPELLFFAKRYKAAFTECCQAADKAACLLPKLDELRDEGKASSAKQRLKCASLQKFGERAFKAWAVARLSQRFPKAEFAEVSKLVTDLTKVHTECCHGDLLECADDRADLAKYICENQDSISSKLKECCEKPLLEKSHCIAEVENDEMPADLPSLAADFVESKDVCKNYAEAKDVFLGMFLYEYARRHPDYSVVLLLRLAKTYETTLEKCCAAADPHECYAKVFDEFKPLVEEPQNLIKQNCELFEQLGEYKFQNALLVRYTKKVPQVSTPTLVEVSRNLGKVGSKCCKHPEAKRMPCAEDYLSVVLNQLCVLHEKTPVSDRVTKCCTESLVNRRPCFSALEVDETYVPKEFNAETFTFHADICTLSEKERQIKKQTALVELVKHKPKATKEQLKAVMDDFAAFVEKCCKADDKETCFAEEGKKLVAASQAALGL

K (Albumin [1]): 2.01 ×10⁴ L/mol
Time (Albumin [2]): 0.515 nanoseconds
Time (Albumin [3]): 3.699 nanoseconds
K (Albumin [4]): 1.97 ×10⁴ L/mol
Activity (Albumin [5]): 47.88%
Time (Albumin [6]): 6.858 nanoseconds
Time (Albumin [7]): 6.84 nanoseconds
Time (Albumin [8]): 3.852 nanoseconds
K (Albumin [9]): 1.1 ×10⁴ L/mol
Activity (Albumin [10]): 49.06%
Time (Albumin [11]): 0.488 nanoseconds
KSV (Albumin [12]): 2.74 ×10⁴ L/mol
KSV (Albumin [13]): 1.99 ×10⁴ L/mol
SMILES: CC(COc1ccccc1Cc1ccccc1)N1CCCCC1 (stereo not drawn) [BENPROPERINE]
